Data as given in patent publication US20240025906A1 (NEURON23, INC., priority 2022, published 2024).
pIC50, pKd: −log10 of the molar value. Where two headings read alike, the source gives them in different places. One block for each compound: values may come before it.

Columns and labels:
TYK2 JH2 = molecular target: T1, TYK2 JH2 (Homo sapiens, UniProt P29597); test: TYK2 JH2 binding assay (KINOMEscan KdELECT competitive binding); conditions: TYK2 JH2 domain
T1 construct: purchased DiscoverX (KINOMEscan KdELECT service); host or cells: E. coli BL21-derived (T7 phage display) or HEK-293
Method in brief: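 Beads carrying a biotinylated ligand were mixed with tagged JH2 kinase and compound (11 points, 3-fold steps, 0.9% DMSO) and shaken 1 h at room temperature. After washing, kinase was released with 0.5 μM untagged ligand over 30 min and measured by qPCR to derive Kd.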

[1] = tested on: JAK1/TYK2 pSTAT5 (Tyr694/699) in THP-1 cell line; test: IFNa-stimulated JAK1/TYK2 pSTAT5 (Tyr694/699) inhibition cellular assay, AlphaLISA; type: cell-based; conditions: THP-1 cells, AlphaLISA (Assay B)
Method in brief: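 pSTAT5 (Tyr694/699) in lysates quantified by AlphaLISA (615 nm) after 30 min IFNa stimulation (100 ng/mL stock) of THP-1 cells. The cells, 2e4 per well in HBSS, had first been exposed 1 h at 37° C. to eight 6-fold compound dilutions, 10000 down to 0.04 nM final. IC50 fitted by 4PL regression, bottom 0, Hill slope −1.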

[2] = KINOMEscan KdELECT (Assay A), read-out: Biochemical TYK2_DiscoverX_JH2_BND_Kd
[3] = Homo sapiens, IFNa-stimulated pSTAT5 (Tyr694/699), read-out: Cellular_THP1_IFNa-pSTATS_TYK2
[4] = Homo sapiens, IFNa-stimulated, read-out: Cellular_THP1_IFNa-pSTATS_TYK2
[5] = DiscoverX KINOMEscan KdELECT (Assay A), read-out: Biochemical TYK2_DiscoverX_JH2_BND_Kd

T1 sequence (P29597 589-875 limits assumed): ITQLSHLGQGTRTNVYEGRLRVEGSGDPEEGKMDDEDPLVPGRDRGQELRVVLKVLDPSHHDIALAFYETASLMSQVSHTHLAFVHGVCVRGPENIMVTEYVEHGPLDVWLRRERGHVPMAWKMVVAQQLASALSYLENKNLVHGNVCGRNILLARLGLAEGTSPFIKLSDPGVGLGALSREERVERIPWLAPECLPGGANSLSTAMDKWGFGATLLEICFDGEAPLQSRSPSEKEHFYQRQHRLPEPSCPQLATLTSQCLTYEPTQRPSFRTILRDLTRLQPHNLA

Compound: CNc1ncc(-c2nc3cc(N4CC5COCC(C4)N5C)ccc3o2)c2cc(NC(=O)C3CC3)ncc12 [Example 447, N-(5-(5-(9-methyl-3-oxa-7,9-diazabicyclo[3.3.1]nonan-7-yl)benzo[d]oxazol-2-yl)-8-(methylamino)-2,7-naphthyridin-3-yl)cyclopropanecarboxamide]
- pKd (TYK2 JH2; [5]): ≥ 7.00
- pIC50 [1, 4]: ≥ 6.30

Compound: CNc1ncc(-c2ccn[nH]2)c2cc(NC(=O)C3CC3)ncc12 [Example 52, N-(8-(methylamino)-5-(1H-pyrazol-5-yl)-2,7-naphthyridin-3-yl)cyclopropanecarboxamide]
- pKd (TYK2 JH2; KINOMEscan KdELECT (Assay A), read-out: Biochemical TYK2_JH2_Kd): ≥ 7.00
- pIC50 ([1]; Homo sapiens, IFNa-stimulated, read-out: Cellular THP1_IFNa-pSTATS_IC50): < 6.30

Compound: CNc1ncc(-c2nc3cc(OCC[S+](C)[O-])ccc3o2)c2cc(NC(=O)C3CC3)ncc12 (stereo not shown) [Example 353, N-(8-(methylamino)-5-(5-(2-(methylsulfinyl)ethoxy)benzo[d]oxazol-2-yl)-2,7-naphthyridin-3-yl)cyclopropanecarboxamide]
- pKd (TYK2 JH2; [5]): ≥ 7.00
- pIC50 [1, 4]: ≥ 6.30

Compound: CNc1ncc(-c2nc3cccc(N4CCC4COC)c3o2)c2cc(NC(=O)C3CC3)ncc12 (stereo not shown) [Example 263, N-(5-(7-(2-(methoxymethyl)azetidin-1-yl)benzo[d]oxazol-2-yl)-8-(methylamino)-2,7-naphthyridin-3-yl)cyclopropanecarboxamide]
- pKd (TYK2 JH2; [5]): ≥ 7.00
- pIC50 [1, 4]: < 6.30

Compound: CNc1ncc(-c2nc3cc(OCC(C)(C)N4CCOCC4)ccc3o2)c2cc(NC(=O)C3CC3)ncc12 [Example 352, N-(5-(5-(2-methyl-2-morpholinopropoxy)benzo[d]oxazol-2-yl)-8-(methylamino)-2,7-naphthyridin-3-yl)cyclopropanecarboxamide]
- pKd (TYK2 JH2; [5]): ≥ 7.00
- pIC50 [1, 4]: ≥ 6.30

Compound: CNc1ncc(-c2nc3cc(OC)ccc3o2)c2cc(Nc3cccc(OC)n3)ncc12 [Example 379, 4-(5-methoxybenzo[d]oxazol-2-yl)-N^6-(6-methoxypyridin-2-yl)-N^1.methyl-2,7-naphthyridine-1,6-diamine]
- pKd (TYK2 JH2; [5]): ≥ 7.00
- pIC50 [1, 4]: ≥ 6.30

Compound: [2H]C([2H])([2H])Nc1ncc(-c2nc3cc(N4CCO[C@@H](C)C4)ccc3o2)c2cc(NC(=O)[C@H]3C[C@H]3C)ncc12 [Example 440, (1S,2R)-2-methyl-N-(8-((methyl-d3)amino)-5-(5-((S)-2-methylmorpholino)benzo[d]oxazol-2-yl)-2,7-naphthyridin-3-yl)cyclopropane-1-carboxamide]
- pKd (TYK2 JH2; [5]): ≥ 7.00
- pIC50 [1, 4]: ≥ 6.30

Compound: CNc1ncc(-c2nc3ccc(N4CCO[C@@H](C)C4)cn3n2)c2cc(Nc3cc(C)n(C)n3)ncc12 [Example 544, (S)—N^6-(1,5-dimethyl-1H-pyrazol-3-yl)-N^1-methyl-4-(6-(2-methylmorpholino)-[1,2,4]triazolo[1,5-a]pyridin-2-yl)-2,7-naphthyridine-1,6-diamine]
- pKd (TYK2 JH2; [5]): ≥ 7.00
- pIC50 [1, 4]: ≥ 6.30

Compound: CNc1ncc(-c2nc3cc(OC)ccc3o2)c2cc(NC3CCC(=O)O3)ncc12 (stereo not shown) [Example 403, 5-((5-(5-methoxybenzo[d]oxazol-2-yl)-8-(methylamino)-2,7-naphthyridin-3-yl)amino)dihydrofuran-2(3H)-one]
- pKd (TYK2 JH2; [5]): ≥ 7.00
- pIC50 [1, 4]: < 6.30

Compound: CNc1ncc(-c2nc3ccc(N4CCO[C@H](C)C4)cn3n2)c2cc(Nc3ccccn3)ncc12 [Example 551, (R)—N^1-methyl-4-(6-(2-methylmorpholino)-[1,2,4]triazolo[1,5-a]pyridin-2-yl)-N^6-(pyridin-2-yl)-2,7-naphthyridine-1,6-diamine]
- pKd (TYK2 JH2; [5]): ≥ 7.00
- pIC50 [1, 4]: ≥ 6.30

Compound: CNc1ncc(-c2nc3ccc(OC)cn3n2)c2cc(NC(=O)[C@H]3C[C@H]3C)ncc12 [Example 520, (1S,2R)—N-(5-(6-methoxy-[1,2,4]triazolo[1,5-a]pyridin-2-yl)-8-(methylamino)-2,7-naphthyridin-3-yl)-2-methylcyclopropane-1-carboxamide]
- pKd (TYK2 JH2; [5]): ≥ 7.00
- pIC50 [1, 4]: ≥ 6.30

Compound: CNc1ncc(-c2nc3ccc(N4CCO[C@@H](C)C4)c(Cl)n3n2)c2cc(NC(=O)C3CC3)ncc12 [Example 509, (S)—N-(5-(5-chloro-6-(2-methylmorpholino)-[1,2,4]triazolo[1,5-a]pyridin-2-yl)-8-(methylamino)-2,7-naphthyridin-3-yl)cyclopropanecarboxamide]
- pKd (TYK2 JH2; [5]): ≥ 7.00
- pIC50 [1, 4]: ≥ 6.30

Compound: CNc1ncc(-c2nc3cc(OC)ccc3o2)c2cc(Nc3ccccn3)ncc12 [Example 372, 4-(5-methoxybenzo[d]oxazol-2-yl)-N^1-methyl-N^6-(pyridin-2-yl)-2,7-naphthyridine-1,6-diamine]
- pKd (TYK2 JH2; [5]): ≥ 7.00
- pIC50 [1, 4]: ≥ 6.30

Compound: CNc1ncc(-c2nc3cc(OC(F)F)ccc3o2)c2cc(NC(=O)C3CC3)ncc12 [Example 225, N-(5-(5-(difluoromethoxy)benzo[d]oxazol-2-yl)-8-(methylamino)-2,7-naphthyridin-3-yl)cyclopropanecarboxamide]
- pKd (TYK2 JH2; [5]): ≥ 7.00
- pIC50 [1, 4]: ≥ 6.30

Compound: CNc1ncc(-c2nc3cc(N4CC(O)C4)ccc3o2)c2cc(NC(=O)C3CC3)ncc12 [Example 283, N-(5-(5-(3-hydroxyazetidin-1-yl)benzo[d]oxazol-2-y1)-8-(methylamino)-2,7-naphthyridin-3-yl)cyclopropanecarboxamide]
- pKd (TYK2 JH2; [5]): ≥ 7.00
- pIC50 [1, 4]: ≥ 6.30

Next, values leading:

- pKd (TYK2 JH2; [2]): ≥ 7.00
- pIC50 [1, 3]: ≥ 6.30
Compound: CNc1ncc(-c2nc3ccc(N4CCO[C@@H]([C@H](C)O)C4)cn3n2)c2cc(NC(=O)C3CC3)ncc12 (single isomer, unassigned) [Example 1044]

- pKd (TYK2 JH2; [2]): ≥ 7.00
- pIC50 [1, 4]: ≥ 6.30
Compound: CNc1ncc(C#Cc2cc(C)c(OC)cn2)c2cc(NC(=O)C3CC3)ncc12 [Example 663, N-(5-((5-methoxy-4-methylpyridin-2-yl)ethynyl)-8-(methylamino)-2,7-naphthyridin-3-yl)cyclopropanecarboxamide]

- pKd (TYK2 JH2; [2]): ≥ 7.00
- pIC50 [1, 4]: ≥ 6.30
Compound: CNc1ncc(-c2nc3cc(-c4cnn(C)n4)ccc3o2)c2cc(NC(=O)C3CC3)ncc12 [Example 940, N-(5-(5-(2-methyl-2H-1,2,3-triazol-4-yl)benzo[d]oxazol-2-yl)-8-(methylamino)-2,7-naphthyridin-3-yl)cyclopropanecarboxamide]

- pKd (TYK2 JH2; [2]): ≥ 7.00
- pIC50 ([1]; IFNa-stimulated pSTAT5 (Tyr694/699), read-out: Cellular_THP1_IFNa-pSTATS_TYK2): ≥ 6.30
Compound: CNc1ncc(-c2nc3ccc(N4CCOC(COC)C4)cn3n2)c2cc(NC(=O)C3CC3)ncc12 (single isomer, unassigned) [Example 1024]

- pKd (TYK2 JH2; [2]): ≥ 7.00
- pIC50 [1, 3]: ≥ 6.30
Compound: CNc1ncc(C#Cc2ccc3c(c2)CCC3=O)c2cc(NC(=O)C3CC3)ncc12 [Example 1013, N-(8-(methylamino)-5-((1-oxo-2,3-dihydro-1H-inden-5-yl)ethynyl)-2,7-naphthyridin-3-yl)cyclopropanecarboxamide]

- pKd (TYK2 JH2; [2]): ≥ 7.00
- pIC50 [1, 3]: ≥ 6.30
Compound: CNc1ncc(-c2nc3ccc(N4CCO[C@@H](C(C)(C)OC)C4)cn3n2)c2cc(NC(=O)C3CC3)ncc12 [Example 1032]

- pKd (TYK2 JH2; [2]): ≥ 7.00
- pIC50 [1, 3]: ≥ 6.30
Compound: CNc1ncc(-c2nc3cccc(OC)n3n2)c2cc(NC(=O)C3CC3)ncc12 [Example 1039]

- pKd (TYK2 JH2; [2]): ≥ 7.00
- pIC50 [1, 3]: ≥ 6.30
Compound: CNc1ncc(-c2nc3cc(N4C[C@@H](C)O[C@@H](C)C4)ccc3o2)c2cc(NC(=O)[C@H]3C[C@H]3C)ncc12 [Example 1063, (1S,2R)-N-[5-[5-[(2R,6S)-2,6-dimethylmorpholin-4-yl]-1,3-benzoxazol-2-yl]-8-(methylamino)-2,7-naphthyridin-3-yl]-2-methyl-cyclopropanecarboxamide]

- pKd (TYK2 JH2; [2]): ≥ 7.00
- pIC50 [1, 4]: < 6.30
Compound: CNc1ncc(C2=CCCC(c3nc[nH]n3)C2)c2cc(NC(=O)C3CC3)ncc12 (stereo not shown) [Example 832, N-(5-(5-(1H-1,2,4-triazol-3-yl)cyclohex-1-en-1-yl)-8-(methylamino)-2,7-naphthyridin-3-yl)cyclopropanecarboxamide]

- pKd (TYK2 JH2; [2]): ≥ 7.00
- pIC50 [1, 4]: ≥ 6.30
Compound: CNc1ncc(-c2nc(-c3ncn(C)n3)co2)c2cc(NC(=O)C3CC3)ncc12 [Example 830, N-(5-(4-(1-methyl-1H-1,2,4-triazol-3-yl)oxazol-2-yl)-8-(methylamino)-2,7-naphthyridin-3-yl)cyclopropanecarboxamide]

- pKd (TYK2 JH2; [2]): ≥ 7.00
- pIC50 [1, 3]: ≥ 6.30
Compound: CNc1ncc(-c2nc3ccc(N4CCOC(CO)C4)cn3n2)c2cc(NC(=O)C3CC3)ncc12 (stereo not shown) [Example 1029]

- pKd (TYK2 JH2; [2]): ≥ 7.00
- pIC50 [1, 3]: ≥ 6.30
Compound: CNc1ncc(-c2nc3cc(C(=O)NCC4CC4)ccc3o2)c2cc(NC(=O)C3CC3)ncc12 [Example 1101, 2-(6-(cyclopropanecarboxamido)-1-(methylamino)-2,7-naphthyridin-4-yl)-N-(cyclopropylmethyl)benzo[d]oxazole-5-carboxamide]

- pKd (TYK2 JH2; [2]): ≥ 7.00
- pIC50 [1, 4]: ≥ 6.30
Compound: CNc1ncc(C#Cc2ccc(C3CCN(C)C3=O)cc2)c2cc(NC(=O)C3CC3)ncc12 (stereo not shown) [Example 896, N-(5-((4-(1-methyl-2-oxopyrrolidin-3-yl)phenyl)ethynyl)-8-(methylamino)-2,7-naphthyridin-3-yl)cyclopropanecarboxamide]

- pKd (TYK2 JH2; [2]): ≥ 7.00
- pIC50 [1, 3]: ≥ 6.30
Compound: CNc1ncc(-c2nc3cc(N4CCOCC4)ccc3o2)c2cc(Nc3ccc(C(C)(C)O)cn3)ncc12 [Example 1098]
